Measured values reported in ChEMBL document CHEMBL1122888, “22-Hydroxycholesterol derivatives as HMG CoA reductase suppressors and serum cholesterol lowering agents” (1985).

Assays:
Rattus norvegicus [1] = species on record: Rattus norvegicus; test: Minimum effective dose necessary to produce >=25% decrease of elevated liver HMG CoA reductage levels; format: functional; settings: read-out: MED
[2] = biological target: T1, 3-hydroxy-3-methylglutaryl-coenzyme A reductase (Homo sapiens) (UniProt P04035); test: Evaluated for serum cholesterol levels in the 14 day treated rhesus monkeys at dose (10 mg/kg/day, ig) over a 2-week period; format: functional, organism-based; settings: Cercopithecidae; target entry is the homologue from another species
T1 sequence (whole entry): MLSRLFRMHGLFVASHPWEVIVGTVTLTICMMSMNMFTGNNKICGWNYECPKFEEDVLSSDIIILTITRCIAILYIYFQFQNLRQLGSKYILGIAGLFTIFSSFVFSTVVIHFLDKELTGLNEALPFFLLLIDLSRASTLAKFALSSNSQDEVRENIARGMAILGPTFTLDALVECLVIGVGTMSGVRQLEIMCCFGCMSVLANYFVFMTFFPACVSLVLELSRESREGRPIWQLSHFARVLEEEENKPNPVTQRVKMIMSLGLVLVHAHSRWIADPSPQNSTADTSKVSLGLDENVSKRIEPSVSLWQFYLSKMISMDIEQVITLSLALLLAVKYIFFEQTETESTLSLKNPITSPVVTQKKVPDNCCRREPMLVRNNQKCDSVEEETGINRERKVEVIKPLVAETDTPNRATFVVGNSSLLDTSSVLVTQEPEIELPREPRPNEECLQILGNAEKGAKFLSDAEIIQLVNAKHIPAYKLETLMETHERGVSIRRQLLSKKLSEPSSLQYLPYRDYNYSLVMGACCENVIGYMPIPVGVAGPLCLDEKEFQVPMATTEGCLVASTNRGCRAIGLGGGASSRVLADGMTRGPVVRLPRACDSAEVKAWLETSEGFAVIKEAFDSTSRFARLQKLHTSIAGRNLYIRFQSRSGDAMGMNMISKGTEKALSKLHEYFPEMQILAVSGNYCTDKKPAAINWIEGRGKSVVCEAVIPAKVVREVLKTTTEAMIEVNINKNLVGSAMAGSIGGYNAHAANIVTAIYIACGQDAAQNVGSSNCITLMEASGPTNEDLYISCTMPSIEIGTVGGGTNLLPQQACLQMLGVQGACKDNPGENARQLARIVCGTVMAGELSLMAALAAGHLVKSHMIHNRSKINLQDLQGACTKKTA

[3] = system: HMG-CoA reductase (Rattus norvegicus); test: Evaluated for the percent suppression of elevated liver HMG-CoA reductase in Diazoesterol treated rats
Monkey [4] = test: Evaluated for serum lipoprotein LDL levels in the 14 day treated monkey at dose (10 mg/kg/day, ig) over a 2-week period; format: functional, Cercopithecidae; design: reference not given here
Monkey [5] = test: Evaluated for serum cholesterol VLDL levels in the 14 day treated monkey at dose (10 mg/kg/day, ig) over a 2-week period; format: functional, Cercopithecidae
[6] = biological target: T1, 3-hydroxy-3-methylglutaryl-coenzyme A reductase (Homo sapiens); test: Evaluated in human fibroblast tissue culture assays for suppression of HMG-CoA reductase at concentration of 1 ug/mL.
Monkey [7] = test: Evaluated for serum lipoprotein HDL levels in the 14 day treated rhesus monkey at dose (10 mg/kg/day, ig) over a 2-week period; format: functional, Cercopithecidae; design: reference not given here
[8] = biological target: T1, 3-hydroxy-3-methylglutaryl-coenzyme A reductase (Homo sapiens); test: Evaluated for serum cholesterol levels in the 14 day treated primate (male rhesus monkeys) at dose (10 mg/kg/day, ig) over a 2-week period; format: functional, organism-based; settings: Cercopithecidae; target entry is the homologue from another species
Rattus norvegicus [9] = species on record: Rattus norvegicus; test: Minimum effective dose necessary to produce >=25% decrease of elevated liver HMG CoA reductage levels in diazasterol treated rats; format: functional; settings: read-out: MED

SMILES | minimal effective dose (Rattus norvegicus [1]) [mg/kg] | cholesterol level [2] [mg/dL] | Suppression [3] [%] | Lipoprotein level (Monkey [4]) [%] | cholesterol level (Monkey [5]) [mg/dL] | inhibition [6] [%] | Lipoprotein level (Monkey [7]) [%] | cholesterol level [8] [mg/dL] | minimal effective dose (Rattus norvegicus [9]) [mg/kg]
CC(C)CCC(O)[C@@H](C)[C@H]1CC[C@H]2[C@@H]3CC=C4C[C@@H](O)CC[C@]4(C)[C@H]3CC[C@]12C (stereo partly drawn) | > 30 |  |  |  |  |  |  |  | 
C[C@H](C(O)CCC(C)(C)F)C1CCC2C3CC=C4CC(O)CCC4(C)C3CCC21C (stereo partly drawn) | 0.5 | 150 | 26 | 25 | 8 | > 95 | 61 |  | 
C[C@H](C(O)CCC(C)(C)Cl)C1CCC2C3CC=C4CC(O)CCC4(C)C3CCC21C (stereo partly drawn) | 0.2 | 168 | 28 | 22 | 4 |  | 70 |  | 
C[C@H](C(O)CCC(C)(C)C)C1CCC2C3CC=C4CC(O)CCC4(C)C3CCC21C (stereo partly drawn) |  |  | 39 | 25 | 6 | 95 | 66 | 167 | 0.5
C[C@H](C(O)CCC1CC1)C1CCC2C3CC=C4CC(O)CCC4(C)C3CCC21C (stereo partly drawn) | 0.5 | 179 | 30 | 23 | 4 | > 95 | 68 |  | 
